Source: patent US20210322397A1, “METHOD TO PREVENT AND TREAT GINGIVAL RECESSION BY CALCIUM CHANNEL BLOCKERS, ANGIOTENSIN CONVERTING ENZYME INHIBITORS, AND ANGIOTENSIN RECEPTOR BLOCKERS” (priority 2018, published 2021)
Read-outs that look alike come from different tables or passages of the source.

Experiments:
[1] = system: gingival recession; conditions: patient with gingival recession throughout the mouth
Description: (§1) A patient is diagnosed with gingival recession throughout the mouth.
A patient is diagnosed with gingival recession throughout the mouth. A composition comprising the ACE inhibitor enalapril is directly applied to the tissue of the gum on one side of the mouth while the other side is left untreated.
A patient is diagnosed with gingival recession throughout the mouth. A composition comprising the angiotensin receptor blocker losartan is directly applied to the tissue of the gum on one side of the mouth while the other side is left untreated.
as §1
A patient is diagnosed with gingival recession throughout the mouth. A composition comprising the ACE inhibitor enalapril is administered by injection into the tissue of the gum on one side of the mouth while the other side is left untreated.
A patient is diagnosed with gingival recession throughout the mouth. A composition comprising the angiotensin receptor blocker losartan is administered by injection into the tissue of the gum on one side of the mouth while the other side is left untreated.

[2] = system: gingival recession; conditions: patient previously successfully treated, after a period of time
Procedure: A composition comprising the ACE inhibitor enalapril is directly applied to the tissue of the gum on one side of the mouth while the other side is left untreated.
A composition comprising the angiotensin receptor blocker losartan is directly applied to the tissue of the gum on one side of the mouth while the other side is left untreated.
A composition comprising the ACE inhibitor enalapril is administered by injection into the tissue of the gum on one side of the mouth while the other side is left untreated.
A composition comprising the angiotensin receptor blocker losartan is administered by injection into the tissue of the gum on one side of the mouth while the other side is left untreated.

[3] = composition administered by injection into the tissue of the gum on one side
[4] = composition directly applied to the tissue of the gum on one side

SMILES	symptoms of gingival recession, treated side versus untreated side [1, 3]	symptoms of gingival recession, treated side versus untreated side [1, 4]	recurrence of symptoms of gingival recession, treated side versus untreated side [2, 3]	recurrence of symptoms of gingival recession, treated side versus untreated side [2, 4]
CCCCc1nc(Cl)c(CO)n1Cc1ccc(-c2ccccc2-c2nn[nH]n2)cc1 [losartan]	reduced symptoms of gingival recession	reduced symptoms of gingival recession	free of symptoms of gingival recession	free of symptoms of gingival recession
CCOC(=O)[C@H](CCc1ccccc1)N[C@@H](C)C(=O)N1CCC[C@H]1C(=O)O [enalapril]	reduced symptoms of gingival recession	reduced symptoms of gingival recession	free of symptoms of gingival recession	free of symptoms of gingival recession
